Experimental data taken from paper PMC7178819, “6,7-Dimethoxy-2-phenethyl-1,2,3,4-tetrahydroisoquinoline amides and corresponding ester isosteres as multidrug resistance reversers” (Journal of Enzyme Inhibition and Medicinal Chemistry, 2020).
Marks after values point to notes of the source that are not given here.

Assays:
BCRP = target: T1, BCRP (Homo sapiens, UniProt Q9UNQ0); test: Inhibition of Hoechst 33342 efflux in MDCK-BCRP cells; type: cell-based; details: for EC50: Hoechst 33342, MDCK-BCRP cells, NA: not active; for BCRP, percentage of the effect: at a concentration of 100 μM, MDCK-BCRP cells
T1 construct: expressed in transfected cells; host or cells: MDCK-BCRP (Madin-Darby Canine Kidney cells, gift of Prof. P. Borst, NKI-AVL)
T1 sequence (Q9UNQ0 1-655): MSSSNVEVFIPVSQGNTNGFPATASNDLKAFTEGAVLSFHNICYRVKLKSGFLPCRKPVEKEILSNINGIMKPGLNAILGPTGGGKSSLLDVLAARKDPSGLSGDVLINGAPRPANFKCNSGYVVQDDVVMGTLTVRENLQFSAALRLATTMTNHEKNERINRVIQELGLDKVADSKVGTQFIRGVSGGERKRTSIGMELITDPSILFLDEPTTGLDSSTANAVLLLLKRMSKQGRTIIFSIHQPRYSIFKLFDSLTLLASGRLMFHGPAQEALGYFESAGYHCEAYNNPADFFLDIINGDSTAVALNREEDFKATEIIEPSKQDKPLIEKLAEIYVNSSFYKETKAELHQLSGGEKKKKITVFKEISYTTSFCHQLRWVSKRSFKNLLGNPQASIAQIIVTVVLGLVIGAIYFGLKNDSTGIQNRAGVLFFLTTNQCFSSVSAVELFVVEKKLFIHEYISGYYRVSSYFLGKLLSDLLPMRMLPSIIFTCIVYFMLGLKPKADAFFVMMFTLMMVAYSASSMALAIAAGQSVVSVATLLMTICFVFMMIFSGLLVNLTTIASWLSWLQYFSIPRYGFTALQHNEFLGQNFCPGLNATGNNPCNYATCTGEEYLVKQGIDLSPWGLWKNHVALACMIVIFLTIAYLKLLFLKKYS
Procedure: These experiments were carried out as described by Teodori et al.[34]. Each cell line (30 000 cells per well) was seeded into black CulturePlate 96/wells plate with 100 µL medium and allowed to become confluent overnight. 100 µL of test compounds were solubilised in culture medium and added to monolayers, with final concentrations ranging from 1 to 100 µM. 96/Wells plate was incubated for 30 min in a humidified atmosphere 5% CO2 at 37 °C. Hoechst 33342 was added in 100 µl of phosphate-buffered saline (PBS) to yield a final concentration of 8 µM and plate was incubated for 30 min in a humidified atmosphere 5% CO2 at 37 °C. The supernatants were drained, and the cells were fixed for 20 min under light protection using 100 µL per well of a 4% PFA solution. Each well was washed three times with ice cold PBS. Saline buffer was added to each well and the plate was read with Victor3 (PerkinElmer) at excitation and emission wavelengths of 340/35 nm and 485/20 nm, respectively. In these experimental conditions, Hoechst 33342 accumulation in the absence and in the presence of tested compounds was evaluated and fluorescence basal level was estimated with untreated cells. In treated wells, the increase of fluorescence with respect to basal level was measured. EC50 values were determined by fitting the fluorescence increase percentage versus log[dose]. […]

[1] = system: HT29, A549, HT29/DX and A549/DX cells; test: Preliminary cytotoxicity of compounds alone in cancer cell lines; type: cell-based, human; details: all the tested concentrations, preliminary assays (data not shown)
Procedure: (§1) The co-administration assay with doxorubicin was performed in MDCK-MDR1, HT29, HT29/DX, A549 and A549/DX cells at 48 h. On day 1, 10,000 cells/well were seeded into 96-well plates in a volume of 100 µL of fresh medium. On day 2, the tested drug was added alone to the cells at different concentrations (ranging from 40 nM to 10 µM). On day 3, the medium was removed and the drug at the same concentrations was added alone and in co-administration with 10 µM doxorubicin to the cells. After the established incubation time with the tested drug, MTT (0.5 mg/mL) was added to each well, and after 3 − 4 h incubation at 37 °C, the supernatant was removed. The formazan crystals were solubilised using 100 µL of DMSO/EtOH (1:1), and the absorbance values at 570 and 630 nm were determined on the microplate reader HTX Synergy (Bio-Tek Instruments).
The efficacy of the compounds was next tested in cancer cell lines with various levels of P-gp, as the human adenocarcinoma colon cells (HT29) and non-small cell lung cancer cells (A549) displaying low amount of P-gp, and their resistant counterparts HT29/DX and A549/DX, with a high amount of P-gp[53]. In preliminary assays, we verified that 3 and 8 were not cytotoxic at all the tested concentration (data not shown).

HT29/DX cells = test: Co-administration assay with doxorubicin (MTT), HT29/DX cells; type: cell-based, human; details: compound 10 µM + 10 µM doxorubicin
Procedure: as §1

MRP1 = target: T2, MRP1 (Homo sapiens, UniProt P33527); test: Inhibition of Calcein-AM efflux in MDCK-MRP1 cells; type: cell-based; details: for MRP1, percentage of the effect: at a concentration of 100 μM; for EC50: Calcein-AM, NA: not active
T2 construct: expressed in transfected cells; host or cells: MDCK-MRP1 (Madin-Darby Canine Kidney cells, gift of Prof. P. Borst, NKI-AVL)
Procedure: These experiments were carried out as previously described by Teodori et al. with minor modifications. Each cell line (30 000 cells per well) was seeded into black CulturePlate 96/wells plate with 100 µL medium and allowed to become confluent overnight. 100 µL of test compounds were solubilised in culture medium and added to monolayers, with final concentrations ranging from 1 nM to 100 µM. 96/Wells plate was incubated for 30 min in a humidified atmosphere 5% CO2 at 37 °C. Calcein-AM was added in 100 µL of Phosphate Buffered Saline (PBS) to yield a final concentration of 2.5 µM and plate was incubated for 30 min in a humidified atmosphere 5% CO2 at 37 °C. Each well was washed 3 times with ice cold PBS. Saline buffer was added to each well and the plate was read with Victor3 (PerkinElmer) at excitation and emission wavelengths of 485 and 535 nm, respectively. In these experimental conditions, Calcein cell accumulation in the absence and in the presence of tested compounds was evaluated and fluorescence basal level was estimated with untreated cells. In treated wells the increase of fluorescence with respect to basal level was measured. EC50 values were determined by fitting the fluorescence increase percentage versus log[dose].
The interaction potency between the designed compounds and P-gp was evaluated by measuring the transport inhibition of the pro-fluorescent probe Calcein-AM, that is a P-gp substrate, in a cell line overexpressing P-gp (MDCK-MDR1)[47]. The P-gp interacting profile was further investigated with two other assays: the Apparent Permeability (Papp) determination (BA/AB) in Caco-2 cell monolayer[48]^,[49], and the ATP cell depletion in the MDCK-MDR1 cell line[50]. Taking into account the results of the combined tests, an interacting compound can be classified as substrate or inhibitor. Papp determination measures the ratio between two fluxes: from the basolateral to apical compartments (BA, representative of passive diffusion) and from the apical to basolateral compartments (AB, representative of active transport). […] In the same manner, if (BA/AB) >2, the compound should probably be classified as a substrate. […] The selectivity of ligands 1–26 was evaluated by detecting their activity towards the other ABC transporters MRP1 and BCRP, by measuring the inhibition of the efflux of Calcein-AM (i.e., also a MRP1 substrate) in cells overexpressing MRP1 (MDCK-MRP1 cells), and the inhibition of the efflux of the fluorescent probe Hoechst 33342 (i.e. a BCRP substrate) in cells overexpressing BCRP (MDCK-BCRP cells), respectively.

T2 sequence (P33527 whole entry): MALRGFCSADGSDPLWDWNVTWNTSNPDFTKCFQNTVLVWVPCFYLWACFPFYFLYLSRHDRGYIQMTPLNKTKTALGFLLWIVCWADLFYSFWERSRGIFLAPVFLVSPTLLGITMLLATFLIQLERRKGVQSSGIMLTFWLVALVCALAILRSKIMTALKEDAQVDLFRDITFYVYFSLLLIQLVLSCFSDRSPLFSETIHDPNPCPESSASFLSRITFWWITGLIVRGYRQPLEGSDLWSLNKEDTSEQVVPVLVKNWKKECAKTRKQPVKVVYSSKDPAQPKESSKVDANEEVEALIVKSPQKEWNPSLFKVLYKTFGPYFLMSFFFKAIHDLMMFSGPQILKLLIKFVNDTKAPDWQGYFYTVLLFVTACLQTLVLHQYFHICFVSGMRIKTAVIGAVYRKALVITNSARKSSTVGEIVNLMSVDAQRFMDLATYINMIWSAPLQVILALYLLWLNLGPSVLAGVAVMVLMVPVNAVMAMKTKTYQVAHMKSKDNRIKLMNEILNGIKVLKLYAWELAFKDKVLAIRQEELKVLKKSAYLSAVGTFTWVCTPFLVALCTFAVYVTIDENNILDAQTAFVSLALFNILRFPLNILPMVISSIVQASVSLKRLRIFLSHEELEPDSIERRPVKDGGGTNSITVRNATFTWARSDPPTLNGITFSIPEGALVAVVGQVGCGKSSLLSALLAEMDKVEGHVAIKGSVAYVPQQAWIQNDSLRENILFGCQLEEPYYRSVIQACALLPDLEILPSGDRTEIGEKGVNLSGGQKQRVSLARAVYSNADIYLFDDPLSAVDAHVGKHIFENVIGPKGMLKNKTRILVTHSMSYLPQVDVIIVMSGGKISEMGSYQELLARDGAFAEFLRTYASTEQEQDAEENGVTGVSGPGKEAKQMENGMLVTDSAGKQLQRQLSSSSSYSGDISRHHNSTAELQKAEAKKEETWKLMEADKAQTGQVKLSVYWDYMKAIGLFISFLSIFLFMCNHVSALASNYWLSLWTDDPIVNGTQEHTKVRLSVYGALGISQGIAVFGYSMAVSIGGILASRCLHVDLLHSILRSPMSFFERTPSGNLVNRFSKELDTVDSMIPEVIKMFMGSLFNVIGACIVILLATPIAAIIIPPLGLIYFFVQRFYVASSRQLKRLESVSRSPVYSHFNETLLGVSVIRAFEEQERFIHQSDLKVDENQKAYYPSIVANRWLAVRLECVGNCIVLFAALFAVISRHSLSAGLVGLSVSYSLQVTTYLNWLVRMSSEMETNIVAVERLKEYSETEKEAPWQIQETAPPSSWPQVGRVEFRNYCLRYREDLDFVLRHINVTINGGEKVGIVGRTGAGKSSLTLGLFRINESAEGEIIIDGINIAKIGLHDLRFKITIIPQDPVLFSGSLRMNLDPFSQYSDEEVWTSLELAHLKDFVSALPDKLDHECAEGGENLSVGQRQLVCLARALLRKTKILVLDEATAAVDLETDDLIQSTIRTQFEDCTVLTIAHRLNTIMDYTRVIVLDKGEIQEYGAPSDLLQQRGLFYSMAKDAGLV

Row | SMILES | EC50 (BCRP) | BCRP, percentage of the effect (BCRP) | other results
1 | COc1cc2c(cc1OC)CN(CCc1ccc(OC(=O)c3c(OC)ccc4ccccc34)cc1)CC2 [Compound 20, 4–(2-(6,7-Dimethoxy-3,4-dihydroisoquinolin-2(1H)-yl)ethyl)phenyl 2-methoxy-1-naphthoate] | 7.3 ± 1.4 µM |  | 
2 | COc1ccc(C(=O)Nc2ccc(CCN3CCc4cc(OC)c(OC)cc4C3)cc2)c(OC)c1 [Compound 3, N-(4–(2-(6,7-dimethoxy-3,4-dihydroisoquinolin-2(1H)-yl)ethyl)phenyl)-2,4-dimethoxybenzamide] | 1 ± 0.2 µM |  | cytotoxicity, compound alone [1]: not cytotoxic; reduction of cell viability, co-administration with doxorubicin (HT29/DX cells): 35%; MRP1, percentage of the effect (MRP1): 31%^d
3 | COc1cc2c(cc1OC)CN(CCc1ccc(NC(=O)c3ccc(OC)c(OC)c3OC)cc1)CC2 [Compound 1, N-(4–(2-(6,7-dimethoxy-3,4-dihydroisoquinolin-2(1H)-yl)ethyl)phenyl)-2,3,4-trimethoxybenzamide] | 21.2 ± 4.2 µM |  | 
4 | COc1cc2c(cc1OC)CN(CCc1ccc(OC(=O)c3cccc(OC)c3OC)cc1)CC2 [Compound 18, 4–(2-(6,7-Dimethoxy-3,4-dihydroisoquinolin-2(1H)-yl)ethyl)phenyl 2,3-dimethoxybenzoate] |  | 44%^d | 
5 | COc1cc2c(cc1OC)CN(CCc1ccc(NC(=O)c3c(OC)c(OC)cc4ccccc34)cc1)CC2 [Compound 8, N-(4–(2-(6,7-dimethoxy-3,4-dihydroisoquinolin-2(1H)-yl)ethyl)phenyl)-2,3-dimethoxy-1-naphthamide] |  |  | cytotoxicity, compound alone [1]: not cytotoxic; reduction of cell viability, co-administration with doxorubicin (HT29/DX cells): 29%; MRP1, percentage of the effect (MRP1): 47%^d
6 | COc1cc2c(cc1OC)CN(CCc1ccc(OC(=O)c3ccc(OC)c(OC)c3OC)cc1)CC2 [Compound 14, 4–(2-(6,7-Dimethoxy-3,4-dihydroisoquinolin-2(1H)-yl)ethyl)phenyl 2,3,4-trimethoxybenzoate] | 15.1 ± 2.89 µM |  | EC50 (MRP1): 69.7 ± 13.9 µM
7 | COc1cc2c(cc1OC)CN(CCc1ccc(OC(=O)c3c(OC)c(OC)cc4ccccc34)cc1)CC2 [Compound 21, 4–(2-(6,7-Dimethoxy-3,4-dihydroisoquinolin-2(1H)-yl)ethyl)phenyl 2,3-dimethoxy-1-naphthoate] |  | 43%^d | 
8 | COc1cc2c(cc1OC)CN(CCc1ccc(OC(=O)c3cccc4ccccc34)cc1)CC2 [Compound 19, 4–(2-(6,7-Dimethoxy-3,4-dihydroisoquinolin-2(1H)-yl)ethyl)phenyl 1-naphthoate] |  | 35%^d | 

More lines, main results first:

Row | EC50 (BCRP) | BCRP, percentage of the effect (BCRP) | SMILES | other results
9 |  | 47%^d | COc1cc2c(cc1OC)CN(CCc1ccc(OC(=O)c3ccccc3OC)cc1)CC2 [Compound 15, 4–(2-(6,7-Dimethoxy-3,4-dihydroisoquinolin-2(1H)-yl)ethyl)phenyl 2-methoxybenzoate] | 
10 |  | 41%^d | COc1cc2c(cc1OC)CN(CCc1ccc(NC(=O)c3cccc(OC)c3OC)cc1)CC2 [Compound 5, N-(4–(2-(6,7-dimethoxy-3,4-dihydroisoquinolin-2(1H)-yl)ethyl)phenyl)-2,3-dimethoxybenzamide] | 
11 | 11 ± 2 µM |  | COc1ccc(C(=O)Oc2ccc(CCN3CCc4cc(OC)c(OC)cc4C3)cc2)c(OC)c1 [Compound 16, 4–(2-(6,7-Dimethoxy-3,4-dihydroisoquinolin-2(1H)-yl)ethyl)phenyl 2,4-dimethoxybenzoate] | EC50 (MRP1): 87 ± 17 µM
